Tested on: normal human lung fibroblasts
Assay: Ribosomal profiling: translational efficiency in TGFβ-treated fibroblasts
Type: cell-based
Conditions: TGFβ-treated fibroblasts
Outline: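 Genome-wide RPF and total RNA libraries (ARTseq, RNA-Seq) were made from lysates of cycloheximide-treated, PBS-washed cells. After trimming and human-genome mapping, per-gene coding-region counts were compared between RPF and RNA for translational efficiency. Genes scoring low in either fraction were dropped.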

For `Cc1ccc(=O)n(-c2ccccc2)c1` [pirfenidone, 5-methyl-1-phenylpyridin-2-one], the “effect in renormalizing the translational profile of the gene” value (gene RPS6KA5 (ENSG00000100784)) was “− (− = <0.9)”, the “effect in renormalizing the translational profile of the gene” value (gene RPS7 (ENSG00000171863)) was “− (− = <0.9)” and the “effect in renormalizing the translational profile of the gene” value (gene RPS8 (ENSG00000142937)) was “+ (+ = 0.9 to 1.5)”. The “effect in renormalizing the translational profile of the gene” value (gene RPS9 (ENSG00000170889)) was “+ (+ = 0.9 to 1.5)”, the “effect in renormalizing the translational profile of the gene” value (gene RPS10 (ENSG00000124614)) was “+ (+ = 0.9 to 1.5)” and the “effect in renormalizing the translational profile of the gene” value (gene RPS11 (ENSG00000142534)) was “− (− = <0.9)”. The “effect in renormalizing the translational profile of the gene” value (gene RPS12 (ENSG00000112306)) was “− (− = <0.9)”, the “effect in renormalizing the translational profile of the gene” value (gene RPS13 (ENSG00000110700)) was “− (− = <0.9)” and the “effect in renormalizing the translational profile of the gene” value (gene RPS14 (ENSG00000164587)) was “− (− = <0.9)”. For the same compound, the “effect in renormalizing the translational profile of the gene” value (gene RPS15 (ENSG00000115268)) was “+ (+ = 0.9 to 1.5)”, the “effect in renormalizing the translational profile of the gene” value (gene RPS15A (ENSG00000134419)) was “+ (+ = 0.9 to 1.5)” and the “effect in renormalizing the translational profile of the gene” value (gene RPS16 (ENSG00000105193)) was “+ (+ = 0.9 to 1.5)”. The “effect in renormalizing the translational profile of the gene” value (gene RPS18 (ENSG00000231500)) was “+ (+ = 0.9 to 1.5)”, the “effect in renormalizing the translational profile of the gene” value (gene RPS19 (ENSG00000105372)) was “+ (+ = 0.9 to 1.5)” and the “effect in renormalizing the translational profile of the gene” value (gene RPS20 (ENSG00000008988)) was “− (− = <0.9)”. For the same compound, the “effect in renormalizing the translational profile of the gene” value (gene RPS21 (ENSG00000171858)) was “− (− = <0.9)”, the “effect in renormalizing the translational profile of the gene” value (gene RPS23 (ENSG00000186468)) was “− (− = <0.9)” and the “effect in renormalizing the translational profile of the gene” value (gene RPS24 (ENSG00000138326)) was “− (− = <0.9)”. For the same compound, the “effect in renormalizing the translational profile of the gene” value (gene RPS25 (ENSG00000118181)) was “− (− = <0.9)”, the “effect in renormalizing the translational profile of the gene” value (gene RPS26 (ENSG00000197728)) was “− (− = <0.9)” and the “effect in renormalizing the translational profile of the gene” value (gene RPS27 (ENSG00000177954)) was “+ (+ = 0.9 to 1.5)”. The “effect in renormalizing the translational profile of the gene” value (gene RPS27A (ENSG00000143947)) was “− (− = <0.9)”, the “effect in renormalizing the translational profile of the gene” value (gene RPS28 (ENSG00000233927)) was “+ (+ = 0.9 to 1.5)” and the “effect in renormalizing the translational profile of the gene” value (gene RPS29 (ENSG00000213741)) was “+ (+ = 0.9 to 1.5)”. The “effect in renormalizing the translational profile of the gene” value (gene RPSA (ENSG00000168028)) was “− (− = <0.9)”, the “effect in renormalizing the translational profile of the gene” value (gene RTN2 (ENSG00000125744)) was “− (− = <0.9)” and the “effect in renormalizing the translational profile of the gene” value (gene SEMA3A (ENSG00000075213)) was “− (− = <0.9)”. For the same compound, the “effect in renormalizing the translational profile of the gene” value (gene SGIP1 (ENSG00000118473)) was “− (− = <0.9)”, the “effect in renormalizing the translational profile of the gene” value (gene SH3BGR (ENSG00000185437)) was “− (− = <0.9)” and the “effect in renormalizing the translational profile of the gene” value (gene SHC3 (ENSG00000148082)) was “− (− = <0.9)”. The “effect in renormalizing the translational profile of the gene” value (gene SLC2A12 (ENSG00000146411)) was “− (− = <0.9)”, the “effect in renormalizing the translational profile of the gene” value (gene SLC7A7 (ENSG00000155465)) was “− (− = <0.9)” and the “effect in renormalizing the translational profile of the gene” value (gene SLC15A3 (ENSG00000110446)) was “− (− = <0.9)”. For the same compound, the “effect in renormalizing the translational profile of the gene” value (gene SLC25A6 (ENSG00000169100)) was “+ (+ = 0.9 to 1.5)”, the “effect in renormalizing the translational profile of the gene” value (gene SLC40A1 (ENSG00000138449)) was “++ (++ = 1.5 to 2.0)” and the “effect in renormalizing the translational profile of the gene” value (gene SMO (ENSG00000128602)) was “− (− = <0.9)”. For the same compound, the “effect in renormalizing the translational profile of the gene” value (gene SNRPA (ENSG00000077312)) was “− (− = <0.9)”, the “effect in renormalizing the translational profile of the gene” value (gene SOX5 (ENSG00000134532)) was “− (− = <0.9)” and the “effect in renormalizing the translational profile of the gene” value (gene SOX6 (ENSG00000110693)) was “+ (+ = 0.9 to 1.5)”. The “effect in renormalizing the translational profile of the gene” value (gene SPATA6 (ENSG00000132122)) was “+ (+ = 0.9 to 1.5)”, the “effect in renormalizing the translational profile of the gene” value (gene STAMBPL1 (ENSG00000138134)) was “+ (+ = 0.9 to 1.5)” and the “effect in renormalizing the translational profile of the gene” value (gene STS (ENSG00000101846)) was “+ (+ = 0.9 to 1.5)”. The “effect in renormalizing the translational profile of the gene” value (gene SYNE2 (ENSG00000054654)) was “− (− = <0.9)”, the “effect in renormalizing the translational profile of the gene” value (gene TAF1D (ENSG00000166012)) was “+ (+ = 0.9 to 1.5)” and the “effect in renormalizing the translational profile of the gene” value (gene TDG (ENSG00000139372)) was “− (− = <0.9)”. For the same compound, the “effect in renormalizing the translational profile of the gene” value (gene TEN1 (ENSG00000257949)) was “− (− = <0.9)”, the “effect in renormalizing the translational profile of the gene” value (gene TET2 (ENSG00000168769)) was “− (− = <0.9)” and the “effect in renormalizing the translational profile of the gene” value (gene TET3 (ENSG00000187605)) was “− (− = <0.9)”. For the same compound, the “effect in renormalizing the translational profile of the gene” value (gene TGFBI (ENSG00000120708)) was “− (− = <0.9)”, the “effect in renormalizing the translational profile of the gene” value (gene THBS3 (ENSG00000169231)) was “+ (+ = 0.9 to 1.5)” and the “effect in renormalizing the translational profile of the gene” value (gene THG1L (ENSG00000113272)) was “− (− = <0.9)”. For the same compound, the “effect in renormalizing the translational profile of the gene” value (gene TIMM9 (ENSG00000100575)) was “− (− = <0.9)”, the “effect in renormalizing the translational profile of the gene” value (gene TKT (ENSG00000163931)) was “+ (+ = 0.9 to 1.5)” and the “effect in renormalizing the translational profile of the gene” value (gene TMTC1 (ENSG00000133687)) was “− (− = <0.9)”. The “effect in renormalizing the translational profile of the gene” value (gene TOMM7 (ENSG00000196683)) was “− (− = <0.9)”, the “effect in renormalizing the translational profile of the gene” value (gene TOP2A (ENSG00000131747)) was “− (− = <0.9)” and the “effect in renormalizing the translational profile of the gene” value (gene TPGS1 (ENSG00000141933)) was “− (− = <0.9)”. The “effect in renormalizing the translational profile of the gene” value (gene TPM2 (ENSG00000198467)) was “− (− = <0.9)”, the “effect in renormalizing the translational profile of the gene” value (gene TPT1 (ENSG00000133112)) was “− (− = <0.9)” and the “effect in renormalizing the translational profile of the gene” value (gene TRERF1 (ENSG00000124496)) was “− (− = <0.9)”. For the same compound, the “effect in renormalizing the translational profile of the gene” value (gene UBA52 (ENSG00000221983)) was “− (− = <0.9)”, the “effect in renormalizing the translational profile of the gene” value (gene UQCRB (ENSG00000156467)) was “− (− = <0.9)” and the “effect in renormalizing the translational profile of the gene” value (gene UTRN (ENSG00000152818)) was “− (− = <0.9)”. The “effect in renormalizing the translational profile of the gene” value (gene VIM (ENSG00000026025)) was “− (− = <0.9)”, the “effect in renormalizing the translational profile of the gene” value (gene ZNF581 (ENSG00000171425)) was “− (− = <0.9)” and the “effect in renormalizing the translational profile of the gene” value (gene ZNF608 (ENSG00000168916)) was “− (− = <0.9)”.

— patent publication US9993494B2, “Compositions and methods for treating fibrotic disease” (eFFECTOR Therapeutics, Inc., priority 2014, dated 2018)
